# Data reported in US20030232862A1 (priority 2002, published 2003).
# Legend:
# Format in all cases: cell-based, human
# HT-29 cells [1] = experiment: Apoptosis and necrosis by morphology (acridine orange/ethidium bromide) in HT-29 cells; details: HT-29, six days
# Description: Apoptosis occurs naturally during normal tissue turnover and during embryonic development of organs and limbs. Apoptosis also is induced by cytotoxic T-lymphocytes and natural killer cells, by ionizing radiation and by certain chemotherapeutic drugs. Inappropriate regulation of apoptosis is thought to play an important role in many pathological conditions including cancer, AIDS, or Alzheimer's disease, etc. Compounds can be screened for induction of apoptosis using cultures of tumor cells maintained under conditions as described above. Treatment of cells with test compounds involves either pre- or post-confluent cultures and treatment for two to seven days at various concentrations. Apoptotic cells are measured in both the attached and “floating” compartments of the cultures. […]
# Reference compounds and test compounds were analyzed for their novel PDE inhibitory activity in accordance with the protocols for the assay, supra. […] Apoptotic and necrotic cell death was determined previously (Duke and Cohen, In: Current Protocols in Immunology, 3.17.1 - 3.17.16, New York, John Wiley and Sons, 1992). […]
# The apoptosis inducing activity for a series of phosphodiesterase inhibitors was determined. […] Apoptosis and necrosis were determined morphologically after acridine orange and ethidium bromide labeling in accordance with the assay described, supra. […]
# HT-29 cells [2] = experiment: Growth inhibition of HT-29 cells (SRB assay; trypan blue counting in time course); details: Table 9 qualitative profile
# [3] = test system: β-catenin and PKG levels in SW480 cells; experiment: Western blot of β-catenin and PKG in SW480 cells
# Experimental: SW480 cells treated with exisulind as described previously are harvested from the microfuge tubes by rinsing once with ice-cold PBS. The cells are lysed by modified RIPA buffer for 15 minutes with agitation. The cell lysate is spun down in a cold room. The supernatants are transferred to fresh microcentrifuge tubes immediately after spinning. BioRad DC Protein Assay (Temecula, Calif.) is performed to determine the protein concentrations in samples. The samples are normalized for protein concentration, as described above.
# 50 μg of each sample is loaded onto a 10% SDS gel. SDS-PAGE is performed, and the proteins then are transferred to a nitrocellulose membrane. The blotted nitrocellulose membrane is blocked in freshly prepared TBST containing 5% nonfat dry milk for one hour at room temperature with constant agitation.
# A goat-anti-PKG primary antibody is diluted to the recommended concentration/dilution in fresh TBST/5% nonfat dry milk. The nitrocellulose membrane is placed in the primary antibody solution and incubated one hour at room temperature with agitation. The nitrocellulose membrane is washed three times for ten minutes each with TBST. The nitrocellulose membrane is incubated in a solution containing a secondary peroxidase (POD) conjugated rabbit anti-goat antibody for 1 hour at room temperature with agitation. The nitrocellulose membrane is washed three times for ten minutes each time with TBST. The detection is performed by using Boehringer Mannheim BM blue POD substrate.
# SW480 cells were treated with exisulind or vehicle (0.1% DMSO) for 48 hours. 50 μg supernatant of each cell lysate was loaded onto a 10% SDS-gel and blotted to a nitrocellulose membrane, and the membrane was probed with rabbit-anti-β-catenin and rabbit anti-PKG antibodies.
# This observation was made by culturing SW480 cells with either 200, 400 or 600 μM exisulind or vehicle (0.1% DMSO). The cells are harvested 48 hours post treatment and processed for immunoblotting. Immuno-reactive protein can be detected by Western blot. […]
structure (smiles),measurement,setting,value
"CC1=C(CC(=O)O)c2cc(F)ccc2/C1=C\c1ccc(S(C)(=O)=O)cc1 [Exisulind, 5-fluoro-2-methyl-1-(p-methylsulfonylbenzylidene)-3-indenylacetic acid]",apoptotic and necrotic cell death,HT-29 cells [1],capable of causing apoptotic cell death without inducing necrosis
same,Growth Inhibition,HT-29 cells [2],+ +
same,reduction of β-catenin expression compared to control,"[3]; SW480, 200, 400 or 600 μM, 48 hours",50%
same,PKG level,"[3]; SW480, 48 hours, FIG. 19",increase of PKG
same,β-catenin level,"[3]; SW480, 48 hours, FIG. 19",drop of β-catenin
